Measurements taken from patent publication US8450527B2, “Amine derivative compounds for treating ophthalmic diseases and disorders” (Acucela Inc., priority 2007, dated 2013).

Target: T1, visual cycle isomerase (Mus musculus, UniProt Q91ZQ5)
T1 construct: The recovery of 11-cis-retinal after bleaching can be used to estimate the activity of isomerase in vivo; from tissue; host or cells: eye (RPE) of living CD-1 albino male mice
T1 sequence (Q91ZQ5 1-533): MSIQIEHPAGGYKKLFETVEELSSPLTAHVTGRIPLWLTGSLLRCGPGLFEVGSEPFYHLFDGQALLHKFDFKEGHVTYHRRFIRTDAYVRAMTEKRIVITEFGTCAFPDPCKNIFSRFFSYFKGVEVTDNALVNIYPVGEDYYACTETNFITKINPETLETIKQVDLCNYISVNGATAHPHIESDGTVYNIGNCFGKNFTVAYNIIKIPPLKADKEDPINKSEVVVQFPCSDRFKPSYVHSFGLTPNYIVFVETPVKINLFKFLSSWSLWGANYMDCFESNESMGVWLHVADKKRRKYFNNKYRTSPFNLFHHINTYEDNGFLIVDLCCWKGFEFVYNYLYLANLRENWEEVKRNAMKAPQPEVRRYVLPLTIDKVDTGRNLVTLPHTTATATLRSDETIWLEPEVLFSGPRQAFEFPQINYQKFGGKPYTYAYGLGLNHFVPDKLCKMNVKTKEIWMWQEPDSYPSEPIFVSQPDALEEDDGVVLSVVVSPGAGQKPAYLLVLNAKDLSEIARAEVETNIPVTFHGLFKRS
Experiment: in vivo murine isomerase assay: recovery of 11-cis-retinal (oxime) after photobleaching
Method: FIG. 1 illustrates isomerase inhibitory activity of the compound of Example 3 (Compound 3). The animals were orally gavaged with 1 mg/kg compound, then “photo-bleached” (5000 Lux white light for 10 minutes) at 4, 24 and 48 hours after dosing, and returned to darkness to allow recovery of the 11-cis-retinal content of the eyes. Mice were sacrificed 2 hours after bleaching, eyes were enucleated, and retinoid content was analyzed by HPLC.
FIG. 2 illustrates concentration-dependent inhibition of isomerase activity by the compound of Example 19 (Compound 19). […] Five animals were included in each treatment group. The error bars correspond to standard error.
A method for determining the effect of a compound on isomerase activity may be performed in vitro as described herein and in the art (Stecher et al., J Biol Chem 274:8577-85 (1999); see also Golczak et al., Proc. Natl. Acad. Sci. USA 102:8162-67 (2005)). Retinal pigment epithelium (RPE) microsome membranes isolated from an animal (such as bovine, porcine, human, for example) may serve as the source of the isomerase. The capability of the amine derivative compounds to inhibit isomerase may also be determined by an in vivo murine isomerase assay. Brief exposure of the eye to intense light (“photobleaching” of the visual pigment or simply “bleaching”) is known to photo-isomerize almost all 11-cis-retinal in the retina. […]

Compound: CCCC(O)(CCC)CCc1cccc(C(O)CCN)c1 (centres unmarked) [Example 19, 4-(3-(3-amino-1-hydroxypropyl)phenethyl)heptan-4-ol]
- inhibition of 11-cis retinal (oxime) recovery (FIG. 2A/2B, dose response): dose related
- ED50 (mouse, read-out: ED50 (dose of compound that gives 50% inhibition of 11-cis retinal (oxime) recovery), FIG. 2, five animals per treatment group, estimated from dose response): ~0.651 mg/kg
